Experimental findings from ChEMBL document CHEMBL4673385, “Discovery of Potent Inhibitors of Streptococcus mutans Biofilm with Antivirulence Activity” (ACS Med Chem Lett, 2021) are described below.

Values after ≈ are worked out from the molar mass of the structure shown. Active and inactive are the calls of the source. The rule behind the calls is not given here. Where only a bound is given, the exact number is not on record here.

Series [1] addresses T1, Glucosyltransferase-SI (Streptococcus mutans serotype c (strain ATCC 700610 / UA159)) (UniProt P13470).
T1 sequence (whole entry): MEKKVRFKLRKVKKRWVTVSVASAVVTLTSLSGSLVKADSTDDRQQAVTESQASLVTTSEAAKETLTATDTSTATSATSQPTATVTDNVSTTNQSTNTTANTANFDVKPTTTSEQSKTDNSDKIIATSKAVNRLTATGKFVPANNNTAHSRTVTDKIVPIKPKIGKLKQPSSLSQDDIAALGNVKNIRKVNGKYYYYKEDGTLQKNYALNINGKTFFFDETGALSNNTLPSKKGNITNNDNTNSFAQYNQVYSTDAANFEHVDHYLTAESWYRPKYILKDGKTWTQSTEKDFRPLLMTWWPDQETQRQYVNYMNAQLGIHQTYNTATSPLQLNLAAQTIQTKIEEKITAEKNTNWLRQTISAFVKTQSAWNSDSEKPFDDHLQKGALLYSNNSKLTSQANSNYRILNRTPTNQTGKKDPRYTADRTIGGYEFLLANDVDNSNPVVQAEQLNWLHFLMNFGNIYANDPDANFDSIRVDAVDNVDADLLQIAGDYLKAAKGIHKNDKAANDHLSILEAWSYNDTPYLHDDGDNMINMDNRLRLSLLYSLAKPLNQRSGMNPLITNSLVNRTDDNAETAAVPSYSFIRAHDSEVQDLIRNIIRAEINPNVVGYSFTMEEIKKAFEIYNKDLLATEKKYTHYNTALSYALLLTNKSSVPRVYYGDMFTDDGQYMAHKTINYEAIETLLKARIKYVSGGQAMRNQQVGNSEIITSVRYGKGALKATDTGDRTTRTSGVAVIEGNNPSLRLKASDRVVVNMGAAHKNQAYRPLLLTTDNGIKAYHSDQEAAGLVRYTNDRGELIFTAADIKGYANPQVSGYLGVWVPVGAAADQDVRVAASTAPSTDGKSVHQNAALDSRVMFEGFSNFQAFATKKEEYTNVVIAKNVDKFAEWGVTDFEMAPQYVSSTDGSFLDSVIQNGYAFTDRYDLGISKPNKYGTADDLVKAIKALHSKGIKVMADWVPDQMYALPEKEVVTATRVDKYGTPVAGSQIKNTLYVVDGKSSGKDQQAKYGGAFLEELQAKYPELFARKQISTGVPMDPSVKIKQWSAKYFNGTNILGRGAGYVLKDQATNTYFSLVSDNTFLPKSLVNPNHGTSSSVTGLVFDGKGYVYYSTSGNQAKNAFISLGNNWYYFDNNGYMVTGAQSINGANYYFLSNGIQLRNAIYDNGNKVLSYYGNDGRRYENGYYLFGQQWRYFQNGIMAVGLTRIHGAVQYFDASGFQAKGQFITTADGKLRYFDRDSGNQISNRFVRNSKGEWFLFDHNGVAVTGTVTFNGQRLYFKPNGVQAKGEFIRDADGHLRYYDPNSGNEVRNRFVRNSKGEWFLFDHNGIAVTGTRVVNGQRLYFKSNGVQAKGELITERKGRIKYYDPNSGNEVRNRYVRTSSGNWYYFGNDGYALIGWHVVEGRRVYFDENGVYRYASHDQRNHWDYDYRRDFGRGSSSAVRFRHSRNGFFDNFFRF
In words: Inhibition of GtfC in Streptococcus mutans UA159 assessed as reduction in glucans level by Coomassie blue dye based SDS-PAGE analysis.

Series [2] can be described thus: Solubility of compound in water. The series is classed as physicochemical. To be noted: water; read-out: solubility.
The test system of series [3] is Streptococcus mutans. In words: Antibiofilm activity against Streptococcus mutans UA159 infected in Fischer 344 rat assessed as proximal surface score at 100 uM topically administered measured after 43 days. The series is classed as functional, organism-based. The following applies: time 43.0 day.
Series [4] deals with Streptococcus mutans. In words: Antibiofilm activity against Streptococcus mutans UA159 infected in Fischer 344 rat assessed as sulcal score at 100 uM topically administered measured after 43 days. The series is classed as functional, organism-based. To be noted: time 43.0 day.
Series [5] relates to Streptococcus mutans. In words: Antibiofilm activity against Streptococcus mutans UA159 infected in Fischer 344 rat assessed as buccal score at 100 uM topically administered measured after 43 days. To be noted: time 43.0 day. Format: functional, organism-based.
Series [6] deals with Streptococcus mutans. The series is described as follows: Antibiofilm activity against Streptococcus mutans UA159 infected in Fischer 344 rat assessed as reduction in colony forming units at 100 uM topically administered measured after 43 days. To be noted: time 43.0 day. Format: functional, organism-based.
Series [7] is described as follows: Toxicity in Fischer 344 rat infected with Streptococcus mutans UA159 assessed as reduction in body weight at 100 uM topically administered measured after 43 days. The following applies: in vivo, topical_or_ocular, 1032 h, time 43 day.
The test system of another series is Streptococcus gordonii. The series is described as follows: Bactericidal activity against Streptococcus gordonii DL1 assessed as reduction in bacterial growth at 100 uM after 24 hrs. Format: functional.
In another series the test system is Streptococcus sanguinis. The series is described as follows: Bactericidal activity against Streptococcus sanguinis SK36 assessed as reduction in bacterial growth at 100 uM after 24 hrs. Format: functional.
Series [8] in a line: Inhibition of Gtf in Streptococcus mutans UA159 assessed as reduction in glucans level by Coomassie blue dye based SDS-PAGE analysis.

For orientation: solubility means the dissolved amount per volume that the medium holds. What is called IC50 is the concentration needed to halve the response being measured.

In the case of `CC(C)(C)OC(=O)NCc1ccccc1NC(=O)c1cnc2ccccc2c1`, the inhibition entry in series [1] was “Active”. In [2], the solubility is 15 µg/mL (≈ 39.7 µM).

On to `NC(=O)c1ccccc1NC(=O)c1cnc2ccccc2c1`, for which the outcome in the series on Streptococcus mutans [3], in the series with Streptococcus mutans [4] and with Streptococcus mutans [5] was Active. For the same compound, the inhibition result in series [1] is “Active”. Moreover, the outcome with Streptococcus mutans [6], in the series on Streptococcus gordonii and with Streptococcus sanguinis was inactive. Further, the Activity entry in [7] was “Non-Toxic”. Besides, the solubility in series [2] came to 5 µg/mL (≈ 17.2 µM).

As to `COC(=O)c1ccc(NC(=O)c2cc3cc([N+](=O)[O-])ccc3s2)cc1`, the inhibition entry in [1] is “Active”. Moreover, in series [2], the solubility is 10 µg/mL (≈ 28.1 µM).

In the case of `NC(=O)c1ccccc1NC(=O)c1cc2cc([N+](=O)[O-])ccc2s1`, the result in the series with Streptococcus mutans [3], in the series with Streptococcus mutans [4] and in the series on Streptococcus mutans [5] was Active. Besides, in [8], the IC50 came to 10 µM. Further, in series [1], the inhibition result was “Active”. The outcome in the series on Streptococcus mutans [6], in the series on Streptococcus gordonii and in the series with Streptococcus sanguinis was inactive. The solubility in series [2] amounted to 10 µg/mL (≈ 29.3 µM).

Consider `O=C(c1ccc(F)cc1)c1ccc(-c2[nH]c(-c3ccc([N+](=O)[O-])cc3O)nc2-c2ccccc2)cc1`, for which the inhibition entry in [1] is “Active”.

As for `CC(C)(C)OC(=O)NCc1ccccc1NC(=O)c1cc2cc([N+](=O)[O-])ccc2s1`, the inhibition entry in series [1] is “Active”. For the same compound, the solubility in [2] is less than 5 µg/mL.

For `NC(=O)c1cccc(NC(=O)c2cnc3ccccc3c2)c1`, in series [1], the inhibition entry was “Active”. Besides, the solubility in [2] is less than 5 µg/mL.
